59 compounds from US8008292B2, “Condensed benzamide compounds and inhibitors of vanilloid receptor subtype 1 (VR1) activity” (Japan Tobacco Inc., priority 2004, dated 2011) can be followed below.

Where a name gives a salt, the structure may show the parent alone.

T1 sequence (Q8NER1 whole entry): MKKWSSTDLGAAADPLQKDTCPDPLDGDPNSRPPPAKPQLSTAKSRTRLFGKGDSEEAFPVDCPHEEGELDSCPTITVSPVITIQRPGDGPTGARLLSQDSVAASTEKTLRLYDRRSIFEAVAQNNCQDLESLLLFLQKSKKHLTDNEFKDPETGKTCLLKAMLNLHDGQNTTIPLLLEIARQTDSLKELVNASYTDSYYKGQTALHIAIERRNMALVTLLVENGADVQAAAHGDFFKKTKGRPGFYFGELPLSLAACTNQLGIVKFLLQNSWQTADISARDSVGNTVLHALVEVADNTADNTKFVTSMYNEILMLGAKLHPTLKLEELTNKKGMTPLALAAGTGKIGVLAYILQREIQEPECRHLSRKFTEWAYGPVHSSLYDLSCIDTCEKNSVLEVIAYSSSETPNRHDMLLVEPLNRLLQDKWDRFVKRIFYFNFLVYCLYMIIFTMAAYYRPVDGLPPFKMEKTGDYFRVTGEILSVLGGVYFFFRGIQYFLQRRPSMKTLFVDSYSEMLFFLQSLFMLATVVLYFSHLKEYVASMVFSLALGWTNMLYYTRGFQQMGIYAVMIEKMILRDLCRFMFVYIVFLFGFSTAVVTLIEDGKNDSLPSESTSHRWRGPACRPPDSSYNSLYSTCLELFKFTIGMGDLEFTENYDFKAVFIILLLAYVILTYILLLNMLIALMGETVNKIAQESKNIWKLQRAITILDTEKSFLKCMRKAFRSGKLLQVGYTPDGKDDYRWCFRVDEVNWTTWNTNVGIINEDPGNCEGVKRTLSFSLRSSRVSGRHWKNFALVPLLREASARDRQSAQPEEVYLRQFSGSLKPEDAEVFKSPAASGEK

This assay has as its target T1, human VR1 (Homo sapiens, UniProt Q8NER1).
T1 construct: expressed in transfected cells
As to the kind of experiment: Inhibition of Ca2+ entry in cells caused by proton, in rat glioma (C6BU1) cells stably expressing human VR1 (Fura 2 fluorescence). Particulars: inhibition of proton-induced Ca2+ entry. The assay is classed as cell-based. The gist of the method:
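Fura 2-loaded C6BU1 cells in 20 mM MES buffer pH 6.8 with added Ca2+ were preincubated 10 min with compound (final 1 μM to 0.1 nM, 1% DMSO). Proton stimulation brought pH to 5.5. Fluorescence rise was measured, and IC50 was derived from % inhibition versus DMSO control.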
Take `O=C(Nc1ccc(N2CCCCC2)c(F)c1)c1cccc2c1OC[C@H](CO)N2c1ncccc1Cl` [Example 4-10]: the IC50 was less than 100 nM.

`O=C(Nc1ccc(OC(F)(F)F)c(Cl)c1)c1cccc2c1OC[C@H](CO)N2c1ncccc1Cl` [Example 4-11] registered an IC50 of less than 100 nM.

Take `CN(C)c1ccc(NC(=O)c2cccc3c2OC[C@H](CO)N3c2ncccc2Cl)cc1F` [Example 4-12]: the IC50 was less than 100 nM.

`Cc1ccc(NC(=O)c2cccc3c2OC[C@H](CO)N3c2ncccc2Cl)cc1F` [Example 4-13] came in with an IC50 of less than 100 nM.

For the compound `CC(C)(C)[C@H]1CC[C@H](NC(=O)c2cccc3c2OC[C@H](CO)N3c2ncccc2Cl)CC1` [Example 4-14], the IC50 is less than 100 nM.

The compound `CC(C)(C)COc1ccc(NC(=O)c2cccc3c2OC[C@H](CO)N3c2ncccc2Cl)cc1` [Example 4-15] registered an IC50 of less than 100 nM.

Take `O=C(Nc1ccc(Cl)cc1)c1cccc2c1OC[C@H](CO)N2c1ncccc1Cl` [Example 4-16]: the IC50 is less than 100 nM.

Take `CC(C)c1ccc(NC(=O)c2cccc3c2OC[C@H](CO)N3c2ncccc2Cl)cc1` [Example 4-17]: the IC50 was less than 100 nM.

The compound `O=C(Nc1ccc(F)c(C(F)(F)F)c1)c1cccc2c1OC[C@H](CO)N2c1ncccc1Cl` [Example 4-18] had an IC50 of less than 100 nM.

The compound `O=C(Nc1ccc(Br)c(Cl)c1)c1cccc2c1OC[C@H](CO)N2c1ncccc1Cl` [Example 4-19] registered an IC50 of less than 100 nM.

`CN(C)c1ccc(NC(=O)c2cccc3c2OC[C@H](CO)N3c2ncccc2Cl)cc1C(F)(F)F` [Example 4-20] yielded an IC50 of less than 100 nM.

Compound `CC(C)Oc1ccc(NC(=O)c2cccc3c2OC[C@H](CO)N3c2ncccc2Cl)cc1C(F)(F)F` [Example 4-21] had a 50% inhibitory concentration (IC50) of less than 100 nM.

`O=C(Nc1ccc(N2CCCCC2)c(C(F)(F)F)c1)c1cccc2c1OC[C@H](CO)N2c1ncccc1Cl` [Example 4-22] displayed an IC50 of less than 100 nM.

`CCOc1ccc(NC(=O)c2cccc3c2OC[C@H](CO)N3c2ncccc2Cl)cc1F` [Example 4-23] came in with an IC50 of less than 100 nM.

`COc1ccc(NC(=O)c2cccc3c2OC[C@H](CO)N3c2ncccc2Cl)cc1C(F)(F)F` [Example 4-24] displayed an IC50 of less than 100 nM.

Take `COc1cnc(N2c3cccc(C(=O)Nc4ccc(C(F)(F)F)cc4)c3OC[C@@H]2CO)c(Cl)c1` [Example 4-25]: the IC50 was less than 100 nM.

For the compound `COc1cnc(N2c3cccc(C(=O)Nc4ccc(OC(F)(F)F)cc4)c3OC[C@@H]2CO)c(Cl)c1` [Example 4-26], the IC50 was less than 100 nM.

On to `Cc1ccc(N2c3cccc(C(=O)Nc4ccc(C(F)(F)F)nc4)c3OC[C@@H]2CO)nc1` [Example 4-27], for which the IC50 is less than 100 nM.

For `COc1ccc(NC(=O)c2cccc3c2OC[C@H](CO)N3c2ccc(C)cn2)cc1C(F)(F)F` [Example 4-28], the 50% inhibitory concentration (IC50) was less than 100 nM.

As to `Cc1ccc(N2c3cccc(C(=O)Nc4ccc(N5CCOCC5)c(C(F)(F)F)c4)c3OC[C@@H]2CO)nc1` [Example 4-29], the IC50 was less than 100 nM.

Regarding `Cc1ccc(N2c3cccc(C(=O)Nc4ccc(C(F)(F)F)c(F)c4)c3OC[C@@H]2CO)nc1` [Example 4-30], the IC50 was less than 100 nM.

With `Cc1ccc(N2c3cccc(C(=O)Nc4ccc(OC(F)(F)F)c(Cl)c4)c3OC[C@@H]2CO)nc1` [Example 4-31], the IC50 was less than 100 nM.

For `Cc1ccc(N2c3cccc(C(=O)Nc4ccc(Cl)c(Cl)c4)c3OC[C@@H]2CO)nc1` [Example 4-32], the IC50 was less than 100 nM.

On to `CC(C)COc1ccc(NC(=O)c2cccc3c2OC[C@H](CO)N3c2ncccc2Cl)cc1C(F)(F)F` [Example 4-33], for which the IC50 is less than 100 nM.

In the case of `O=C(Nc1ccc(Cl)c(Cl)c1)c1cccc2c1OC[C@H](CO)N2c1ncccc1Cl` [Example 4-34], the IC50 is less than 100 nM.

`O=C(Nc1ccc(Cl)c(C(F)(F)F)c1)c1cccc2c1OC[C@H](CO)N2c1ncccc1Cl` [Example 4-35]: the IC50 was less than 100 nM.

As to `O=C(Nc1ccc(Br)c(F)c1)c1cccc2c1OC[C@H](CO)N2c1ncccc1Cl` [Example 4-36], the IC50 was less than 100 nM.

With `Cc1ccc(N2c3cccc(C(=O)Nc4ccc(Cl)c(C(F)(F)F)c4)c3OC[C@@H]2CO)nc1` [Example 4-37], the IC50 is less than 100 nM.

The compound `Cc1ccc(N2c3cccc(C(=O)Nc4ccc(OC(C)C)c(C(F)(F)F)c4)c3OC[C@@H]2CO)nc1` [Example 4-38] yielded an IC50 of less than 100 nM.

Take `O=C(Nc1ccc(N2CCOCC2)c(C(F)(F)F)c1)c1cccc2c1OC[C@H](CO)N2c1ncccc1Cl` [Example 4-39]: the IC50 was less than 100 nM.

In turn, `Cc1ccc(N2c3cccc(C(=O)Nc4ccc(C(F)(F)F)cc4Cl)c3OC[C@@H]2CO)nc1` [Example 4-40] gave an IC50 of less than 100 nM.

On to `Cc1cccnc1N1c2cccc(C(=O)Nc3ccc(OC(F)(F)F)cc3)c2OC[C@@H]1CO` [Example 4-41], for which the 50% inhibitory concentration (IC50) was less than 100 nM.

For `Cc1cccnc1N1c2cccc(C(=O)Nc3ccc(C(F)(F)F)cc3)c2OC[C@@H]1CO` [Example 4-42], the IC50 is less than 100 nM.

Take `Cc1cccnc1N1c2cccc(C(=O)Nc3ccc(OC(C)(C)C)c(F)c3)c2OC[C@@H]1CO` [Example 4-43]: the IC50 was less than 100 nM.

Compound `Cc1cccnc1N1c2cccc(C(=O)Nc3ccc(OCC(C)C)c(F)c3)c2OC[C@@H]1CO` [Example 4-44] came in with an IC50 of less than 100 nM.

`Cc1ccc(N2c3cccc(C(=O)Nc4ccc(OCC(C)C)c(C(F)(F)F)c4)c3OC[C@@H]2CO)nc1` [Example 4-45] displayed an IC50 of less than 100 nM.

For `Cc1ccc(N2c3cccc(C(=O)Nc4ccc(OC(C)C)c(F)c4)c3OC[C@@H]2CO)nc1` [Example 4-46], the IC50 is less than 100 nM.

In the case of `Cc1ccc(N2c3cccc(C(=O)Nc4ccc(N5CCOCC5)c(F)c4)c3OC[C@@H]2CO)nc1` [Example 4-47], the IC50 was less than 100 nM.

`Cc1ccc(N2c3cccc(C(=O)Nc4ccc(Cl)cc4)c3OC[C@@H]2CO)nc1` [Example 4-48] displayed a half-maximal inhibitory concentration (IC50) of less than 100 nM.

The compound `Cc1ccc(N2c3cccc(C(=O)Nc4ccc(OC(C)(C)C)c(F)c4)c3OC[C@@H]2CO)nc1` [Example 4-50] yielded an IC50 of less than 100 nM.

In turn, `Cc1ccc(N2c3cccc(C(=O)Nc4ccc(Br)c(F)c4)c3OC[C@@H]2CO)nc1` [Example 4-51] showed a half-maximal inhibitory concentration (IC50) of less than 100 nM.

For the compound `O=C(Nc1ccc(OC(F)(F)F)cc1)c1cccc2c1OCC(CO)N2c1ncccc1Cl` (centres unmarked) [Example 4-52], the IC50 is less than 100 nM.

`O=C(Nc1ccc(C(F)(F)F)c(F)c1)c1cccc2c1OC[C@H](CO)N2c1ncccc1Cl` [Example 4-53] had an IC50 of less than 100 nM.

Regarding `Cc1ccc(N2c3cccc(C(=O)Nc4ccc(OCC(C)C)c(F)c4)c3OC[C@@H]2CO)nc1` [Example 4-54], the IC50 was less than 100 nM.

The compound `Cc1ccc(N2c3cccc(C(=O)Nc4ccc(F)c(C(F)(F)F)c4)c3OC[C@@H]2CO)nc1` [Example 4-55] gave an IC50 of less than 100 nM.

In turn, `CC(O)C1COc2c(C(=O)Nc3ccc(OC(F)(F)F)cc3)cccc2N1c1ncccc1Cl` (centres unmarked) [Example 4-56] returned an IC50 of less than 100 nM.

In turn, `CC(C)(C)c1ccc(NC(=O)c2cccc3c2OCCN3c2cnccn2)cc1` [Example 5-1, N-(4-tert-butylphenyl)-4-(pyrazine-2-yl)-3,4-dihydro-2H-benzo[1,4]oxazine-8-carboxamide] had a half-maximal inhibitory concentration (IC50) of 100 to 1000 nM.

`CCc1cnc(N2CCOc3c(C(=O)Nc4ccc(Cl)cc4)cccc32)nc1` [Example 5-2, N-(4-chlorophenyl)-4-(5-ethylpyrimidin-2-yl)-3,4-dihydro-2H-benzo[1,4]oxazine-8-carboxamide] gave an IC50 of 100 to 1000 nM.

`O=C(Nc1ccc(C(F)(F)F)cc1)c1cccc2c1OCCN2c1ccc(Cl)nn1` [Example 5-4, 4-(6-chloropyridazine-3-yl)-N-(4-trifluoromethylphenyl)-3,4-dihydro-2H-benzo[1,4]oxazine-8-carboxamide] came in with an IC50 of less than 100 nM.

Turning to `Cc1csc(N2CCOc3c(C(=O)Nc4ccc(OC(F)(F)F)cc4)cccc32)n1` [Example 5-5, 4-(4-methylthiazol-2-yl)-N-(4-trifluoromethoxyphenyl)-3,4-dihydro-2H-benzo[1,4]oxazine-8-carboxamide], the IC50 lay in the range of 100 to 1000 nM.

With `Cc1cnc(N2CCOc3c(C(=O)Nc4ccc(OC(F)(F)F)cc4)cccc32)s1` [Example 5-6, 4-(5-methylthiazol-2-yl)-N-(4-trifluoromethoxyphenyl)-3,4-dihydro-2H-benzo[1,4]oxazine-8-carboxamide], the IC50 is less than 100 nM.

`Cc1cnc(N2c3cccc(C(=O)Nc4ccc(OC(F)(F)F)cc4)c3OC[C@@H]2CO)s1` [Example 6-1, (S)-3-hydroxymethyl-4-(5-methylthiazol-2-yl)-N-(4-trifluoromethoxyphenyl)-3,4-dihydro-2H-benzo[1,4]oxazine-8-carboxamide]: the IC50 is less than 100 nM.

For `Cc1cnc(N2c3cccc(C(=O)Nc4ccc(C(F)(F)F)cc4)c3OC[C@@H]2CO)s1` [Example 6-2, (S)-3-hydroxymethyl-4-(5-methylthiazol-2-yl)-N-(4-trifluoromethylphenyl)-3,4-dihydro-2H-benzo[1,4]oxazine-8-carboxamide], the IC50 was less than 100 nM.

Regarding `Cc1cnc(N2c3cccc(C(=O)Nc4ccc(Cl)c(Cl)c4)c3OC[C@@H]2CO)s1` [Example 6-3, (S)-N-(3,4-dichlorophenyl)-3-hydroxymethyl-4-(5-methylthiazol-2-yl)-3,4-dihydro-2H-benzo[1,4]oxazine-8-carboxamide hydrochloride], the IC50 is less than 100 nM.

In the case of `Cc1cnc(N2c3cccc(C(=O)Nc4ccc(OC(C)C)c(F)c4)c3OC[C@@H]2CO)s1` [Example 6-4], the IC50 is less than 100 nM.

Compound `Cc1cnc(N2c3cccc(C(=O)Nc4ccc(OC(C)(C)C)c(F)c4)c3OC[C@@H]2CO)s1` [Example 6-5] showed an IC50 of less than 100 nM.

In turn, `Cc1cnc(N2c3cccc(C(=O)Nc4ccc(OCC(C)C)c(F)c4)c3OC[C@@H]2CO)s1` [Example 6-6] displayed an IC50 of less than 100 nM.

`Cc1cnc(N2c3cccc(C(=O)Nc4ccc(Br)c(F)c4)c3OC[C@@H]2CO)s1` [Example 6-7] displayed an IC50 of less than 100 nM.

Turning to `Cc1cnc(N2c3cccc(C(=O)Nc4ccc(F)c(C(F)(F)F)c4)c3OC[C@@H]2CO)s1` [Example 6-8], the IC50 is less than 100 nM.
